Measured values taken from patent publication US10730889B2, “Amido spirocyclic amide and sulfonamide derivatives” (Forma TM, LLC, priority 2012, dated 2020).
Read-outs that look alike come from different tables or passages of the source.

Tested on: A2780 cells
Assay: In-vitro cell proliferation assay (SRB, 72 hours)
Type: cell-based
Conditions: A2780 cells, 72 hours, SRB, read-out: Cell Proliferation (IC50)

Row | SMILES | IC50 (Homo sapiens, A2780, 72 h) [nM] | IC50 [nM]
1 | CN1CCN(Cc2ccc(C(=O)N3CCC4(CC3)CC4CNC(=O)c3cc4cnccc4[nH]3)cc2)CC1 (stereo not drawn) [Example 343, N-[[6-[4-[(4-methylpiperazin-1-yl)methyl]benzoyl]-6-azaspiro[2.5]octan-2-yl]methyl]-1H-pyrrolo[3,2-c]pyridine-2-carboxamide] | 42.5 | 
2 | CN1CCN(Cc2cccc(C(=O)N3CCC4(CC3)CC4CNC(=O)c3cc4cnccc4[nH]3)c2)CC1 (stereo not drawn) [Example 344, N-[[6-[3-[(4-methylpiperazin-1-yl)methyl]benzoyl]-6-azaspiro[2.5]octan-2-yl]methyl]-1H-pyrrolo[3,2-c]pyridine-2-carboxamide] | 72 | 
3 | CN(C)Cc1ccc(C(=O)N2CCC3(CC2)CC3CNC(=O)c2cc3cnccc3[nH]2)cc1 (stereo not drawn) [Example 345, N-[[6-[4-[(dimethylamino)methyl]benzoyl]-6-azaspiro[2.5]octan-2-yl]methyl]-1H-pyrrolo[3,2-c]pyridine-2-carboxamide] | 80.8 | 
4 | CN1CCN(Cc2ccc(C(=O)N3CCC4(CC3)CC4CNC(=O)N3Cc4ccncc4C3)cc2)CC1 (stereo not drawn) [Example 346, N-[[6-[4-[(4-methylpiperazin-1-yl)methyl]benzoyl]-6-azaspiro[2.5]octan-2-yl]methyl]-1,3-dihydropyrrolo[3,4-c]pyridine-2-carboxamide] | 6.01 | 
5 | CC1(C)CC1C(=O)N1CCC2(CC1)CC2CNC(=O)c1cc2cnccc2[nH]1 (stereo not drawn) [Example 348, N-[[6-(2,2-dimethylcyclopropanecarbonyl)-6-azaspiro[2.5]octan-2-yl]methyl]-1H-pyrrolo[3,2-c]pyridine-2-carboxamide] |  | 42.6
6 | CC(C)(CO)OC(=O)N1CCC2(CC1)CC2CNC(=O)N1Cc2ccncc2C1 (stereo not drawn) [Example 351, (2-hydroxy-1,1-dimethyl-ethyl) 2-[(1,3-dihydropyrrolo[3,4-c]pyridine-2-carbonylamino)methyl]-6-azaspiro[2.5]octane-6-carboxylate] | 3.56 | 
7 | Cn1cc(-c2ccno2)c(C(=O)N2CCC3(CC2)CC3CNC(=O)N2Cc3ccncc3C2)n1 (stereo not drawn) [Example 354, N-[[6-(4-isoxazol-5-yl-1-methyl-pyrazole-3-carbonyl)-6-azaspiro[2.5]octan-2-yl]methyl]-1,3-dihydropyrrolo[3,4-c]pyridine-2-carboxamide] | 7.07 | 
8 | CN1CCC(C)(CC(=O)N2CCC3(CC2)CC3CNC(=O)N2Cc3ccncc3C2)CC1 (stereo not drawn) [Example 356, N-[[6-[2-(1,4-dimethyl-4-piperidyl)acetyl]-6-azaspiro[2.5]octan-2-yl]methyl]-1,3-dihydropyrrolo[3,4-c]pyridine-2-carboxamide] | 7.62 | 
9 | N#Cc1ccccc1CC(=O)N1CCC2(CC1)CC2CNC(=O)N1Cc2ccncc2C1 (stereo not drawn) [Example 357, N-[[6-[2-(2-cyanophenyl)acetyl]-6-azaspiro[2.5]octan-2-yl]methyl]-1,3-dihydropyrrolo[3,4-c]pyridine-2-carboxamide] | 10.6 | 
10 | CC(=O)NCC(C)(C)OC(=O)N1CCC2(CC1)CC2CNC(=O)N1Cc2ccncc2C1 (stereo not drawn) [Example 358, (2-acetamido-1,1-dimethyl-ethyl)2-[(1,3-dihydropyrrolo[3,4-c]pyridine-2-carbonylamino)methyl]-6-azaspiro[2.5]octane-6-carboxylate] | 9.19 | 
11 | C=C/N=C\C1=CCN(C(=O)NCC2CC23CCN(C(=O)CCC(C)(C)O)CC3)C1 (stereo not drawn) [Example 360, N-[[6-(4-hydroxy-4-methyl-pentanoyl)-6-azaspiro[2.5]octan-2-yl]methyl]-1,3-dihydropyrroIo[3,4-c]pyridine-2-carboxamide] | 50.9 | 
12 | CC1(NC(=O)N2CCC3(CC2)CC3CNC(=O)N2Cc3ccncc3C2)COC1 (stereo not drawn) [Example 361, N-[[6-[(3-methyloxetan-3-yl)carbamoyl]-6-azaspiro[2.5]octan-2-yl]methyl]-1,3-dihydropyrrolo[3,4-c]pyridine-2-carboxamide] | 56.1 | 
13 | CN1CCN(c2ccc(C(=O)N3CCC4(CC3)CC4CNC(=O)N3Cc4ccncc4C3)cc2)CC1 (stereo not drawn) [Example 362, N-[[6-[4-(4-methylpiperazin-1-yl)benzoyl]-6-azaspiro[2.5]octan-2-yl]methyl]-1,3-dihydropyrrolo[3,4-c]pyridine-2-carboxamide] | 1.9 | 
14 | CN1CCN(c2ccc(C(=O)N3CCC4(CC3)CC4CNC(=O)c3cc4cnccc4[nH]3)cc2)CC1 (stereo not drawn) [Example 363, N-[[6-[4-(4-methylpiperazin-1-yl)benzoyl]-6-azaspiro[2.5]octan-2-yl]methyl]-1H-pyrrolo[3,2-c]pyridine-2-carboxamide] | 11.4 | 

Results, then the compound that gave them:

Row | IC50 (Homo sapiens, A2780, 72 h) [nM] | IC50 [nM] | SMILES
15 | 24.7 |  | CC(C)n1nccc1C(=O)N1CCC2(CC1)CC2CNC(=O)c1cc2ccncc2o1 (stereo not drawn) [Example 325, N-[[6-(2-isopropylpyrazole-3-carbonyl)-6-azaspiro[2.5]octan-2-yl]methy]furo[2,3-c]pyridine-2-carboxamide]
16 | 10.9 |  | CCc1cc(C(=O)N2CCC3(CC2)CC3CNC(=O)c2cc3ccncc3o2)n(C)n1 (stereo not drawn) [Example 326, N-[[6-(5-ethyl-2-methyl-pyrazole-3-carbonyl)-6-azaspiro[2.5]octan-2-yl]methyl]furo[2,3-c]pyridine-2-carboxamide]
17 | 77.6 |  | O=C(NCC1CC12CCN(C(=O)c1cc(C3CC3)on1)CC2)c1cc2ccncc2o1 (stereo not drawn) [Example 327, N-[[6-(5-cyclopropylisoxazole-3-carbonyl)-6-azaspiro[2.5]octan-2-yl]methyl]furo[2,3-c]pyridine-2-carboxamide]
18 | 83.4 |  | O=C(NCC1CC12CCN(C(=O)c1cnoc1C1CC1)CC2)c1cc2ccncc2o1 (stereo not drawn) [Example 328, N-[[6-(5-cyclopropylisoxazole-4-carbonyl)-6-azaspiro[2.5]octan-2-yl]methyl]furo[2,3-c]pyridine-2-carboxamide]
19 | 55.1 |  | Cc1n[nH]c(C)c1C(=O)N1CCC2(CC1)CC2CNC(=O)c1cc2ccncc2o1 (stereo not drawn) [Example 329, N-[[6-(3,5-dimethyl-1H-pyrazole-4-carbonyl)-6-azaspiro[2.5]octan-2-yl]methyl]furo[2,3-c]pyridine-2-carboxamide]
20 | 159 |  | Cc1c(C(=O)N2CCC3(CC2)CC3CNC(=O)c2cc3ccncc3o2)cnn1C (stereo not drawn) [Example 330, N-[[6-(1,5-dmiethylpyrazole-4-carbonyl)-6-azaspiro[2.5]octan-2-yl]methyl]furo[2,3-c]pyridine-2-carboxamide]
21 | 7.04 |  | Cc1ncoc1C(=O)N1CCC2(CC1)CC2CNC(=O)c1cc2ccncc2o1 (stereo not drawn) [Example 331, N-[[6-(4-methyloxazole-5-carbonyl)-6-azaspiro[2.5]octan-2-yl]methyl]furo[2,3-c]pyridine-2-carboxamide]
22 | 33.8 |  | O=C(NCC1CC12CCN(C(=O)c1c[nH]nc1C1CC1)CC2)c1cc2ccncc2o1 (stereo not drawn) [Example 332, N-[[6-(3-cyclopropyl-1H-pyrazole-4-carbonyl)-6-azaspiro[2.5]oetan-2-yl]methyl]furo[2,3-c]pyridine-2-carboxamide]
23 | 6.81 |  | O=C(NCC1CC12CCN(C(=O)c1n[nH]c3c1CCC3)CC2)c1cc2ccncc2o1 (stereo not drawn) [Example 333, N-[[6-(1,4,5,6-tetrahydrocyclopenta[c]pyrazole-3-carbonyl)-6-azaspiro[2.5]octan-2-yl]methyl]furo[2,3-c]pyridine-2-carboxamide]
24 | 56.5 |  | Cc1nc(C(=O)N2CCC3(CC2)CC3CNC(=O)c2cc3ccncc3o2)c(C)o1 (stereo not drawn) [Example 334, N-[[6-(2,5-dimethyloxazole-4-carbonyl)-6-azaspiro[2.5]octan-2-yl]methyl]furo[2,3-c]pyridine-2-carboxamide]
25 | 590 |  | Cc1nn(C)cc1C(=O)N1CCC2(CC1)CC2CNC(=O)c1cc2ccncc2o1 (stereo not drawn) [Example 335, N-[[6-(1,3-dimethylpyrazole-4-carbonyl)-6-azaspiro[2.5]octan-2-yl]methyl]furo[2,3-c]pyridine-2-carboxamide]
26 | 63.5 |  | O=C(NCC1CC12CCN(C(=O)c1cnco1)CC2)c1cc2ccncc2o1 (stereo not drawn) [Example 336, N-[[6-(oxazole-5-carbonyl)-6-azaspiro[2.5]octan-2-yl]methyl]furo[2,3-c]pyridine-2-carboxamide]
27 | 23.1 |  | O=C(NCC1CC12CCN(C(=O)c1cnoc1)CC2)c1cc2ccncc2o1 (stereo not drawn) [Example 337, N-[[6-(isoxazole-4-carbonyl)-6-azaspiro[2.5]octan-2-yl]methyl]furo[2,3-c]pyridine-2-carboxamide]
28 | 2000 |  | O=C(NCC1CC12CCN(C(=O)c1ncc[nH]1)CC2)c1cc2ccncc2o1 (stereo not drawn) [Example 338, N-[[6-(1H-imidazole-2-carbonyl)-6-azaspiro[2.5]octan-2-yl]methyl]furo[2,3-c]pyridine-2-carboxamide]
29 | 1.9 |  | CN1CCN(c2ccc(C(=O)N3CCC4(CC3)CC4CNC(=O)c3cc4ccncc4o3)cc2)CC1 (stereo not drawn) [Example 339, N-[[6-[4-(4-Methylpiperazin-1-yl)benzoyl]-6-azaspiro[2.5]octan-2-yl]methyl]furo[2,3-c]pyridine-2-carboxamide]
30 | 429 |  | O=C(NCC1CC12CCN(C(=O)c1cnc3[nH]cnc3c1)CC2)c1cc2ccncc2o1 (stereo not drawn) [Example 340, N-[[6-(3H-imidazo[4,5-b]pyridine-6-carbonyl)-6-azaspiro[2.5]octan-2-yl]methyl]furo[2,3-c]pyridine-2-carboxamide]
31 | 717 |  | Cc1ccc(C(=O)N2CCC3(CC2)CC3CNC(=O)c2cc3ccncc3o2)nc1 (stereo not drawn) [Example 341, N-[[6-(5-methylpyridine-2-carbonyl)-6-azaspiro[2.5]octan-2-yl)methyl]furo[2,3-c]pyridine-2-carboxamide]
32 | 7.55 |  | O=C(NCC1CC12CCN(C(=O)c1cc(C3CC3)n[nH]1)CC2)N1Cc2ccncc2C1 (stereo not drawn) [Example 353, N-[[6-(3-cyclopropyl-1H-pyrazole-5-carbonyl)-6-azaspiro[2.5]octan-2-yl]methyl]-1,3-dihydropyrrolo[3,4-c]pyridine-2-carboxamide]
33 |  | 110 | CC1(C)CC1C(=O)N1CCC2(CC1)CC2CNC(=O)c1cc2cnccc2[nH]1 (stereo not drawn) [Example 364, N-[[6-(2,2-dimethylcyclopropanecarbonyl)-6-azaspiro[2.5]octan-2-yl]methyl]-1H-pyrrolo[3,2-c]pyridine-2-carboxamide]
